Reference: patent publication US11685732B2, “MYST family histone acetyltransferase inhibitors” (Epizyme, Inc., priority 2017, dated 2023)

Key:
[1] = target: KAT-5 (Homo sapiens (Human), UniProt Q92993); assay: KAT-5 biochemical inhibition assay (SAMDI mass spectrometry)
Summary of the method: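 Acetylation of 1 μM peptide by 9 nM enzyme with 0.5 μM acetyl-CoA (final) was run 90 min at 25° C in Tris pH 8.0 buffer with DTT, after compound preincubation at 2% DMSO. Formic acid stopped the reaction, and product was quantified by SAMDI mass spectrometry to derive IC50.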

[2] = target: KAT-7 (Homo sapiens (Human), UniProt O95251); assay: KAT-7 biochemical inhibition assay (SAMDI mass spectrometry)
KAT-7, sequence (O95251 other isoform, or with tags, fused parts or gaps): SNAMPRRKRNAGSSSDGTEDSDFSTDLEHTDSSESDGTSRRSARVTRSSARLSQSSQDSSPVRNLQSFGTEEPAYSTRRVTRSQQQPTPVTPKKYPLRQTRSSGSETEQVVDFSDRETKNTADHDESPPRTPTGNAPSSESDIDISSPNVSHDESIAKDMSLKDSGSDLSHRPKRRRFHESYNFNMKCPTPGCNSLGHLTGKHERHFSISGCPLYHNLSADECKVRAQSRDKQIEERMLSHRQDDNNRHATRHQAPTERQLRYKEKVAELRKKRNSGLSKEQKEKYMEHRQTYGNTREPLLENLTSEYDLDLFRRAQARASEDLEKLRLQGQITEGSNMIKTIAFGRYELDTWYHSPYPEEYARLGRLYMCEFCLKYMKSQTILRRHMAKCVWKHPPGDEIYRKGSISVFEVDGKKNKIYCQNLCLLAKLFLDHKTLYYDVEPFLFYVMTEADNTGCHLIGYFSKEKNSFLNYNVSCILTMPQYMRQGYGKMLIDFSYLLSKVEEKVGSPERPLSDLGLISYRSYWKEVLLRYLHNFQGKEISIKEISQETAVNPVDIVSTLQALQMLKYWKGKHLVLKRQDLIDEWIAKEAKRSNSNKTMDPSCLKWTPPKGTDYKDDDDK
Summary of the method: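 Read-out was SAMDI time-of-flight MS of formic acid-quenched reactions (0.5% final). Compound dilutions (2% DMSO final) were pre-incubated with 6 nM KAT-7 in 50 mM Tris pH 8.0 with 1 mM DTT, then given 1 μM peptide substrate and 2 μM acetyl-CoA for 120 min at 25 °C. IC50 values were derived.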

[3] = target: KAT-8 (Homo sapiens (Human), UniProt Q9H7Z6); assay: KAT-8 biochemical inhibition assay (SAMDI mass spectrometry)
KAT-8, sequence (Q9H7Z6 other isoform, or with tags, fused parts or gaps): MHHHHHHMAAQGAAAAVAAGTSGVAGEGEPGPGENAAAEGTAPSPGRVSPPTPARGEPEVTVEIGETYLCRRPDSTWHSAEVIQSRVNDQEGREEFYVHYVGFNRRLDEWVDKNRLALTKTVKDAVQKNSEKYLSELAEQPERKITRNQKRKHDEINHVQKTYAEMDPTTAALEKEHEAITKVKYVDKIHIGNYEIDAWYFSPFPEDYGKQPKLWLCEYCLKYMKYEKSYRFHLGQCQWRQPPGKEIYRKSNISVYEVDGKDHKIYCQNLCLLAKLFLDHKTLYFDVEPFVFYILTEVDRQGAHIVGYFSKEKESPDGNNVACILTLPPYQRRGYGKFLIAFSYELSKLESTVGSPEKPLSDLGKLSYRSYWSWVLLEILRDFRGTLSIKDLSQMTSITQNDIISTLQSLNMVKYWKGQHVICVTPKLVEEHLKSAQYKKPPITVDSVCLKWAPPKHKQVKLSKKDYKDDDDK
Summary of the method: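 Acetylation of 1 μM peptide substrate with 5 μM acetyl-CoA by 12.5 nM enzyme, compound pre-incubated, 2% DMSO, Tris pH 8.0 buffer with DTT, 25 °C for 90 min. Quench with 0.5% formic acid; product read by SAMDI mass spectrometry to give IC50.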

[4] = target: KAT-6A (Homo sapiens (Human), UniProt Q92794); assay: KAT-6A biochemical inhibition assay (SAMDI mass spectrometry)
KAT-6A, sequence (Q92794 other isoform, or with tags, fused parts or gaps): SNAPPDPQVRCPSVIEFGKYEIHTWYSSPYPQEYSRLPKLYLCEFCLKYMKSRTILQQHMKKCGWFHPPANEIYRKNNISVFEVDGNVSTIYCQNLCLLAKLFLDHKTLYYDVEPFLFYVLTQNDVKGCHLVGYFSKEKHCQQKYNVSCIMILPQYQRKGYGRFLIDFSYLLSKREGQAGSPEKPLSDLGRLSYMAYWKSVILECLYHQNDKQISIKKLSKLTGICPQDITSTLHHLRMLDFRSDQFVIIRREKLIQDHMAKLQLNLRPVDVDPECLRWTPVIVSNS
Summary of the method: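 IC50 values came from SAMDI time-of-flight mass spectrometry after formic acid quench (0.5% final). Acetylation ran 90 min at 25 °C with 1 μM acetyl coenzyme A and 1 μM peptide substrate, following compound pre-incubation with 12.5 nM KAT-6A in Tris buffer pH 8.0 containing DTT, 2% DMSO final.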

KAT-5, sequence (Q92993 other isoform, or with tags, fused parts or gaps): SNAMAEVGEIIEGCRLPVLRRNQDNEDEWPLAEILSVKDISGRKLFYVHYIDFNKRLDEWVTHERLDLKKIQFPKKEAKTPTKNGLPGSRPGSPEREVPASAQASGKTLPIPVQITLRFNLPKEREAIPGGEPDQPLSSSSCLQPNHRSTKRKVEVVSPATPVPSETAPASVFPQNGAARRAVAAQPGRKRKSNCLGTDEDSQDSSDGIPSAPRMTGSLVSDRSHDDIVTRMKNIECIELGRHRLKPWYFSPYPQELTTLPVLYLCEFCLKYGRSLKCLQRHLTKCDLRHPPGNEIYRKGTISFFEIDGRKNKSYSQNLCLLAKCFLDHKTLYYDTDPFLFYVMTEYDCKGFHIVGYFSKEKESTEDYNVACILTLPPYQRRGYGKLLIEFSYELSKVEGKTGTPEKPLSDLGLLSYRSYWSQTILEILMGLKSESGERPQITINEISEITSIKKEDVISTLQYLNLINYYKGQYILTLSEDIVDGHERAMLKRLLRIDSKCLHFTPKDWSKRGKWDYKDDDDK

SMILES | IC50 [1] | IC50 [2] | IC50 [3] | IC50 [4]
Cn1cnc(-c2cc(Cl)c(F)c(C(=O)NNS(=O)(=O)C3CCOC3)c2)c1 (stereo not drawn) [Compound I-27] | 10 to 50 µM | < 10 µM | > 100 µM | 50 to 100 µM
Cn1cnc(-c2cc(Cl)c(F)c(C(=O)NNS(=O)(=O)CC3CN(C(=O)OC(C)(C)C)C3)c2)c1 [Compound I-95] | 10 to 50 µM | < 10 µM | 10 to 50 µM | < 10 µM
Cn1cc(-c2cc(Cl)c(F)c(C(=O)NNS(=O)(=O)C3CCOCC3)c2)nc1Cl [Compound I-8] | > 100 µM | 10 to 50 µM | > 100 µM | 10 to 50 µM
Cn1cnc(-c2cc(Cl)c(F)c(C(=O)NNS(=O)(=O)c3ccccc3)c2)c1 [Compound I-110] | < 10 µM | < 10 µM | 10 to 50 µM | < 10 µM
Cn1cnc(-c2cc(Cl)c(F)c(C(=O)NNS(=O)(=O)CC3CCCN(C(=O)C4CCC4)C3)c2)c1 (stereo not drawn) [Compound I-13] | < 10 µM | < 10 µM | > 100 µM | < 10 µM
COCCc1nc(-c2cc(Cl)c(F)c(C(=O)NNS(=O)(=O)C3CCOCC3)c2)cn1C [Compound I-119] | 10 to 50 µM | 10 to 50 µM | 10 to 50 µM | 10 to 50 µM
Cn1cnc(-c2cc(Cl)c(F)c(C(=O)NNS(=O)(=O)CC3CCCC(S(=O)(=O)C4CCC4)C3)c2)c1 (stereo not drawn) [Compound I-91] | < 10 µM | < 10 µM | 10 to 50 µM | < 10 µM
Cn1cnc(-c2cc(Cl)c(Cl)c(C(=O)NNS(=O)(=O)CC3CCCCC3)c2)c1 [Compound I-144] | > 100 µM | < 10 µM | > 100 µM | > 100 µM
Cn1cnc(-c2cc(Cl)c(F)c(C(=O)NNS(=O)(=O)C3CCCCC3)c2)c1 [Compound I-2] | < 10 µM | < 10 µM | 10 to 50 µM | < 10 µM
Cc1cc(-c2cn(C)cn2)cc(C(=O)NNS(=O)(=O)CC2CCCNC2)c1F (stereo not drawn) [Compound I-133] | > 100 µM | < 10 µM | > 100 µM | > 100 µM
Cc1cn(-c2cc(Cl)c(F)c(C(=O)NNS(=O)(=O)CC3CCOCC3)c2)cn1 [Compound I-49] | > 100 µM | > 100 µM | > 100 µM | > 100 µM
CCC(=O)N1CCC(CS(=O)(=O)NNC(=O)c2cc(-c3cn(C)cn3)cc(Cl)c2F)C1 (stereo not drawn) [Compound I-73] | < 10 µM | < 10 µM | 10 to 50 µM | 10 to 50 µM
CC(=O)N1CCCC(CS(=O)(=O)NNC(=O)c2cc(-c3cn(C)cn3)cc(C)c2F)C1 (stereo not drawn) [Compound I-142] | < 10 µM | < 10 µM | > 100 µM | < 10 µM
O=C(NNS(=O)(=O)CC1CCCCC1)c1cc(-c2ccccn2)cc(Cl)c1F [Compound I-5] | < 10 µM | < 10 µM | > 100 µM | < 10 µM
Cn1cnc(-c2cc(Cl)c(F)c(C(=O)NNS(=O)(=O)C[C@H]3C[C@H](N)C3)c2)c1 [Compound I-123] | 10 to 50 µM | < 10 µM | 10 to 50 µM | 10 to 50 µM
Cc1ncc(-c2cc(Cl)c(F)c(C(=O)NNS(=O)(=O)CC3CCCCC3)c2)n1C [Compound I-29] | 10 to 50 µM | 50 to 100 µM | > 100 µM | > 100 µM
Cc1cc(-c2cn(C)cn2)cc(C(=O)NNS(=O)(=O)CC2CCOCC2)c1F [Compound I-130] | < 10 µM | < 10 µM | > 100 µM | 10 to 50 µM
Cc1ncc(-c2cc(Cl)c(F)c(C(=O)NNS(=O)(=O)C3CCOCC3)c2)n1C [Compound I-54] | 50 to 100 µM | > 100 µM | > 100 µM | > 100 µM
COCCn1cnc(-c2cc(C)c(F)c(C(=O)NNS(=O)(=O)CC3CCCNC3)c2)c1 (stereo not drawn) [Compound I-136] | > 100 µM | > 100 µM | > 100 µM | > 100 µM
CCNC(=O)N[C@H]1C[C@@H](CS(=O)(=O)NNC(=O)c2cc(-c3cn(C)cn3)cc(Cl)c2F)C1 [Compound I-107] | < 10 µM | < 10 µM | 10 to 50 µM | < 10 µM
Cn1cnc(-c2cc(Cl)c(F)c(C(=O)NNS(=O)(=O)CC3CCC4CCC3N4C(=O)OC(C)(C)C)c2)c1 (stereo not drawn) [Compound I-250] | < 10 µM | < 10 µM | 10 to 50 µM | 10 to 50 µM
Cc1cc(-c2cn(C)c(Cl)n2)cc(C(=O)NNS(=O)(=O)CC2CCCCC2)c1C [Compound I-147] | > 100 µM | > 100 µM | > 100 µM | > 100 µM
Cc1cc(-c2cn(C)cn2)cc(C(=O)NNS(=O)(=O)CC2CCCCC2)c1F [Compound I-129] | < 10 µM | < 10 µM | > 100 µM | < 10 µM

The next lines start with the values.

IC50 [1] | IC50 [2] | IC50 [3] | IC50 [4] | SMILES
10 to 50 µM | < 10 µM | > 100 µM | < 10 µM | CNc1ccc(S(=O)(=O)NNC(=O)c2cc(-c3cn(C)cn3)cc(Cl)c2F)cc1 [Compound I-382]
10 to 50 µM | < 10 µM | 10 to 50 µM | < 10 µM | Cn1cnc(-c2cc(Cl)c(F)c(C(=O)NNS(=O)(=O)c3cccnc3)c2)c1 [Compound I-301]
< 10 µM | < 10 µM | < 10 µM | < 10 µM | Cn1cnc(-c2cc(Cl)c(F)c(C(=O)NNS(=O)(=O)C[C@H]3CC[C@@H](NC(N)=O)CC3)c2)c1 [Compound I-200]
10 to 50 µM | < 10 µM | 10 to 50 µM | 10 to 50 µM | COCCc1nc(-c2cc(Cl)c(F)c(C(=O)NNS(=O)(=O)CC3CCCCC3)c2)cn1C [Compound I-192]
< 10 µM | < 10 µM | 10 to 50 µM | 10 to 50 µM | CCNC(=O)N(C)[C@H]1CC[C@@H](CS(=O)(=O)NNC(=O)c2cc(-c3cn(C)cn3)cc(Cl)c2F)CC1 [Compound I-363]
10 to 50 µM | < 10 µM | 10 to 50 µM | 10 to 50 µM | Cn1cnc(-c2cc(F)c(F)c(C(=O)NNS(=O)(=O)C3CCOCC3)c2)c1 [Compound I-149]
< 10 µM | < 10 µM | 10 to 50 µM | 10 to 50 µM | Cn1cnc(-c2cc(Cl)c(F)c(C(=O)NNS(=O)(=O)C[C@H]3CCC[C@@H](OCc4ccccc4)C3)c2)c1 [Compound I-290]
< 10 µM | < 10 µM | 10 to 50 µM | < 10 µM | COc1ccc(CN(C)C(=O)NC2CCC(CS(=O)(=O)NNC(=O)c3cc(-c4cn(C)cn4)cc(Cl)c3F)C2)cc1 (stereo not drawn) [Compound I-359]
< 10 µM | < 10 µM | 10 to 50 µM | < 10 µM | Cn1cnc(-c2cc(Cl)c(F)c(C(=O)NNS(=O)(=O)CC3CCCC(NC(=O)c4ccncc4)C3)c2)c1 (stereo not drawn) [Compound I-238]
< 10 µM | < 10 µM | > 100 µM | < 10 µM | Cn1cnc(-c2cc(Cl)c(F)c(C(=O)NNS(=O)(=O)C[C@H]3CCCO3)c2)c1 [Compound I-388]
< 10 µM | < 10 µM | 10 to 50 µM | < 10 µM | Cn1cnc(-c2cc(Cl)c(F)c(C(=O)NNS(=O)(=O)C[C@H]3CC[C@@H](NS(C)(=O)=O)CC3)c2)c1 [Compound I-248]
< 10 µM | < 10 µM | 10 to 50 µM | < 10 µM | Cn1cnc(-c2cc(Cl)c(F)c(C(=O)NNS(=O)(=O)CC3CCCN(C(=O)NCCO)C3)c2)c1 (stereo not drawn) [Compound I-225]
< 10 µM | < 10 µM | 10 to 50 µM | < 10 µM | CN1CCN([C@H]2CC[C@@H](CS(=O)(=O)NNC(=O)c3cc(-c4cn(C)cn4)cc(Cl)c3F)CC2)C1=O [Compound I-310]
< 10 µM | < 10 µM | 10 to 50 µM | < 10 µM | Cn1cnc(-c2cc(Cl)c(F)c(C(=O)NNS(=O)(=O)c3cccnc3OCc3ccccc3)c2)c1 [Compound I-374]
10 to 50 µM | < 10 µM | 10 to 50 µM | < 10 µM | CC(C)S(=O)(=O)N1CC(CS(=O)(=O)NNC(=O)c2cc(-c3cn(C)cn3)cc(Cl)c2F)C1 [Compound I-193]
10 to 50 µM | < 10 µM | 10 to 50 µM | 10 to 50 µM | Cn1cnc(-c2cc(Cl)c(F)c(C(=O)NNS(=O)(=O)C[C@H]3CCC[C@H](N)C3)c2)c1 [Compound I-349]
< 10 µM | < 10 µM | 10 to 50 µM | < 10 µM | Cn1cnc(-c2cc(Cl)c(F)c(C(=O)NNS(=O)(=O)CC3CCCC(F)(F)C3)c2)c1 (stereo not drawn) [Compound I-342]
< 10 µM | < 10 µM | 10 to 50 µM | < 10 µM | CN(C)C(=O)N(C)[C@H]1CC[C@H](CS(=O)(=O)NNC(=O)c2cc(-c3cn(C)cn3)cc(Cl)c2F)CC1 [Compound I-366]
< 10 µM | < 10 µM | > 100 µM | 10 to 50 µM | Cn1cc(-c2cc(Cl)c(F)c(C(=O)NNS(=O)(=O)CC3CCCCC3)c2)cn1 [Compound I-158]
